Results as given in EPA's ToxRefDB 2.

Legend:
[1] = test system: rabbit; details: Sub-acute dermal toxicity, new zealand white, Topical, dose end: 21 day, group: systemic
[2] = test system: rat; details: Prenatal developmental toxicity study, wistar, Oral, Gavage/Intubation, dose end: 15 GD
[3] = test system: rat; details: Carcinogenicity, fischer, Oral, Feed, dose end: 103 week, group: systemic
[4] = test system: rat; details: Subchronic oral toxicity in rodents, fischer, Feed, dose end: 13 week, group: systemic
[5] = test system: mouse; details: Subchronic oral toxicity in rodents, b6c3f1, Feed, dose end: 13 week, group: systemic
[6] = test system: mouse; details: Carcinogenicity, b6c3f1, Oral, Feed, dose end: 103 week, group: systemic
[7] = test system: mouse; details: Subchronic oral toxicity in rodents, b6c3f1, Water, dose end: 13 week, group: systemic
[8] = test system: rat; details: Subchronic oral toxicity in rodents, fischer, Feed, dose end: 13 week, group: systemic; remark: listed apart in the source
[9] = test system: mouse; details: Combined chronic toxicity/carcinogenicity; b6c3f1; Oral; Feed; dose end: 2 year; group: systemic; systemic / in life observation / body weight / body weight
[10] = test system: mouse; details: Prenatal developmental toxicity study, cd1, Oral, Gavage/Intubation, dose end: 14 GD
[11] = test system: rat; details: Combined chronic toxicity/carcinogenicity, fischer, Oral, Feed, dose end: 2 year, group: systemic
[12] = test system: rat; details: Prenatal developmental toxicity study, sprague dawley, Oral, Gavage/Intubation, dose end: 15 GD
[13] = test system: mouse; details: Subchronic oral toxicity in rodents, b6c3f1, Feed, dose end: 13 week, group: systemic; remark: listed apart in the source
[14] = test system: mouse; details: Prenatal developmental toxicity study, cd1, Oral, Gavage/Intubation, dose end: 15 GD
[15] = test system: mouse; details: Carcinogenicity, cd1, Oral, Feed, dose end: 18 month, group: systemic
[16] = test system: rat; details: Combined chronic toxicity/carcinogenicity, sprague dawley, Oral, Feed, dose end: 24 month, group: systemic
[17] = test system: rat; details: Subchronic oral toxicity in rodents, sprague dawley, Feed, dose end: 90 day, group: systemic
[18] = test system: rat; details: Multigenerational reproductive toxicity study, sprague dawley, Oral, Feed, dose end: 2 generation
[19] = test system: dog; details: Chronic toxicity, beagle, Oral, Capsule, dose end: 52 week, group: systemic
[20] = test system: rat; details: Combined chronic toxicity/carcinogenicity; fischer; Oral; Feed; dose end: 365 day; group: systemic; systemic / pathology gross / full gross necropsy / adenoma
[21] = test system: mouse; details: Combined chronic toxicity/carcinogenicity; other; Oral; Feed; dose end: 365 day; group: systemic; systemic / pathology gross / full gross necropsy / lymphoma malignant
[22] = systemic / in life observation / clinical signs / erythema
[23] = systemic / in life observation / clinical signs / erythema + systemic / in life observation / body weight / body weight + systemic / in life…
[24] = group: developmental, developmental / developmental malformation / eye / anophthalmia + developmental / developmental malformation / eye / microphthalmia + …
[25] = group: maternal, systemic / in life observation / body weight / body weight gain + systemic / in life observation / clinical signs / labored respiration
[26] = group: maternal, systemic / in life observation / body weight / body weight gain + systemic / in life observation / clinical signs / labored respiration + …
[27] = systemic / pathology microscopic / liver / basophilic focus + systemic / pathology microscopic / liver / eosinophilic focus + systemic / …
[28] = systemic / pathology microscopic / liver / hyperplasia + systemic / pathology microscopic / liver / basophilic focus + systemic / pathology …
[29] = systemic / in life observation / body weight / body weight + systemic / pathology microscopic / kidney / pigmentation + systemic / in life …
[30] = systemic / pathology microscopic / kidney / hemosiderosis + systemic / pathology microscopic / liver / hemosiderosis + systemic / pathology …
[31] = systemic / in life observation / body weight / body weight
[32] = systemic / in life observation / body weight / body weight + systemic / in life observation / clinical signs / emaciation + systemic / in …
[33] = systemic / pathology microscopic / nose / degeneration
[34] = systemic / in life observation / body weight / body weight + systemic / in life observation / clinical signs / aggressive behavior + …
[35] = group: developmental, systemic / in life observation / body weight / fetal weight
[36] = group: developmental, systemic / in life observation / body weight / fetal weight + developmental / developmental malformation / mouth / jaw / cleft palate
[37] = group: maternal, systemic / in life observation / body weight / body weight gain
[38] = group: maternal, systemic / in life observation / body weight / body weight gain + systemic / in life observation / body weight / body weight + systemic / in…
[39] = systemic / pathology microscopic / liver / granuloma
[40] = systemic / pathology microscopic / liver / granuloma + systemic / pathology microscopic / pituitary gland / adenoma
[41] = group: developmental, developmental / developmental malformation / kidney / hydronephrosis + developmental / developmental malformation / ureter / hydroureter + …
[42] = group: maternal, systemic / in life observation / body weight / body weight + systemic / in life observation / body weight / body weight gain + systemic / in…
[43] = systemic / in life observation / body weight / body weight + systemic / in life observation / clinical signs / fur (altered appearance) + …
[44] = group: developmental, developmental / developmental malformation / mouth / jaw / cleft palate + systemic / in life observation / body weight / fetal weight
[45] = group: maternal, systemic / in life observation / body weight / body weight gain + systemic / in life observation / body weight / body weight + systemic / …
[46] = systemic / hematology / anemia / anemia - nos + systemic / hematology / erythrocyte (rbc) count differential / erythrocyte (rbc) + systemic…
[47] = systemic / in life observation / clinical signs / fur (altered appearance) + systemic / pathology gross / penis / prolapse
[48] = systemic / hematology / erythrocyte (rbc) count differential / erythrocyte (rbc) + systemic / hematology / hematocrit (hct) / hematocrit (…
[49] = systemic / in life observation / clinical signs / fur (altered appearance) + systemic / in life observation / clinical signs / urine, …
[50] = group: offspring, systemic / in life observation / body weight / offspring (pup) weight
[51] = group: parental, systemic / pathology gross / spleen / discolored + systemic / pathology microscopic / spleen / congestion + systemic / pathology microscopic…
[52] = group: reproductive, reproductive / offspring survival early / litter size / litter size
[53] = systemic / clinical chemistry / cholesterol / cholesterol + systemic / clinical chemistry / bilirubin / total bilirubin + systemic / …
[54] = systemic / hematology / platelet / platelet + systemic / organ weight / spleen / absolute + systemic / organ weight / spleen / relative to …

## Cc1cc(O)ccc1Cl [4-Chloro-3-methylphenol]
[1]; [22]
  LOAEL: 10 mg/kg/day
  NOAEL: < 10 mg/kg/day
[1]; [23]
  LEL: 10 mg/kg/day
  NEL: < 10 mg/kg/day
[2]; [24]
  LEL: 300 mg/kg/day
  LOAEL: 300 mg/kg/day
  NEL: 100 mg/kg/day
  NOAEL: 100 mg/kg/day
[2]; [25]
  LEL: 100 mg/kg/day
  LOAEL: 100 mg/kg/day
[2]; [26]
  NEL: 30 mg/kg/day
  NOAEL: 30 mg/kg/day

## Oc1ccc2ccccc2c1N=Nc1ccccc1 [C.I. Solvent Yellow 14]
[3]; [27]
  LOAEL: 25 mg/kg/day
  NOAEL: 12.5 mg/kg/day
[3]; [28]
  LEL: 12.5 mg/kg/day
  NEL: < 12.5 mg/kg/day
[4]; [29]
  NEL: 12.5 mg/kg/day
  NOAEL: 25 mg/kg/day
[4]; systemic / in life observation / body weight / body weight + systemic / pathology microscopic / kidney / pigmentation + systemic / pathology…
  LOAEL: 50 mg/kg/day
[4]; systemic / pathology microscopic / kidney / pigmentation
  LEL: 25 mg/kg/day
[5]; [30]
  LOAEL: 300 mg/kg/day
  NEL: 75 mg/kg/day
  NOAEL: 150 mg/kg/day
[5]; systemic / pathology microscopic / spleen / hemosiderosis
  LEL: 150 mg/kg/day
[6]; [31]
  LEL: 75 mg/kg/day
  LOAEL: 150 mg/kg/day
  NEL: < 75 mg/kg/day
[6]; systemic / in life observation / body weight / body weight + systemic / in life observation / body weight / body weight gain
  NOAEL: 75 mg/kg/day

## ON=C1CCCCC1 [Cyclohexanone oxime]
[7]; [32]
  LOAEL: > 1150 mg/kg/day
  NOAEL: ≥ 1150 mg/kg/day
[7]; [33]
  LEL: 132 mg/kg/day
  NEL: < 132 mg/kg/day

## CN(C)CCOC(c1ccccc1)c1ccccc1.Cl [Diphenhydramine hydrochloride]
[8]; [31]
  LOAEL: 31.3 mg/kg/day
[8]; [34]
  NEL: 7.8 mg/kg/day
  NOAEL: 15.7 mg/kg/day
[8]; systemic / pathology microscopic / liver / vacuolization cytoplasmic
  LEL: 15.7 mg/kg/day
[9]
  LEL: 21 mg/kg/day
  LOAEL: 46 mg/kg/day
  NEL: < 21 mg/kg/day
  NOAEL: 21 mg/kg/day
[10]; [35]
  LEL: 80 mg/kg/day
  NEL: < 80 mg/kg/day
[10]; [36]
  LOAEL: > 200 mg/kg/day
  NOAEL: ≥ 200 mg/kg/day
[10]; [37]
  LEL: 80 mg/kg/day
  NEL: < 80 mg/kg/day
[10]; [38]
  LOAEL: > 200 mg/kg/day
  NOAEL: ≥ 200 mg/kg/day
[11]; [39]
  LEL: 7 mg/kg/day
  NEL: < 7 mg/kg/day
[11]; [40]
  LOAEL: > 15 mg/kg/day
  NOAEL: ≥ 15 mg/kg/day
[12]; [41]
  LEL: 100 mg/kg/day
  LOAEL: > 100 mg/kg/day
  NEL: 50 mg/kg/day
  NOAEL: ≥ 100 mg/kg/day
[12]; [42]
  LEL: 100 mg/kg/day
  LOAEL: > 100 mg/kg/day
  NEL: 50 mg/kg/day
  NOAEL: ≥ 100 mg/kg/day
[13]; [31]
  LOAEL: 93.8 mg/kg/day
[13]; [43]
  LEL: 93.8 mg/kg/day
  NEL: 47 mg/kg/day
  NOAEL: 47 mg/kg/day
[14]; group: developmental, developmental / developmental malformation / mouth / jaw / cleft palate
  LEL: 80 mg/kg/day
[14]; [44]
  LOAEL: > 160 mg/kg/day
  NEL: 40 mg/kg/day
  NOAEL: ≥ 160 mg/kg/day
[14]; [37]
  LEL: 80 mg/kg/day
[14]; [45]
  LOAEL: > 160 mg/kg/day
  NEL: 40 mg/kg/day
  NOAEL: ≥ 160 mg/kg/day

## c1ccc(Nc2ccccc2)cc1 [Diphenylamine]
[15]; [46]
  LOAEL: 368 mg/kg/day
  NOAEL: 73.2 mg/kg/day
[15]; [47]
  LEL: 73.2 mg/kg/day
  NEL: < 73.2 mg/kg/day
[16]; [48]
  LOAEL: 138 mg/kg/day
  NEL: 7.5 mg/kg/day
  NOAEL: 24.9 mg/kg/day
[16]; systemic / hematology / erythrocyte (rbc) count differential / erythrocyte (rbc) + systemic / pathology gross / spleen / discolored + …
  LEL: 24.9 mg/kg/day
[17]; [49]
  LOAEL: 547 mg/kg/day
  NEL: 9.6 mg/kg/day
  NOAEL: 95.8 mg/kg/day
[17]; systemic / pathology microscopic / spleen / hematopoietic cell proliferation erythrocytic
  LEL: 95.8 mg/kg/day
[18]; [50]
  LEL: 115 mg/kg/day
  LOAEL: 115 mg/kg/day
  NEL: 40 mg/kg/day
  NOAEL: 40 mg/kg/day
[18]; [51]
  LEL: 40 mg/kg/day
  LOAEL: 40 mg/kg/day
  NEL: < 40 mg/kg/day
  NOAEL: < 40 mg/kg/day
[18]; [52]
  LEL: 399 mg/kg/day
  LOAEL: 399 mg/kg/day
  NEL: 115 mg/kg/day
  NOAEL: 115 mg/kg/day
[19]; [53]
  LOAEL: 50 mg/kg/day
  NOAEL: 10 mg/kg/day
[19]; [54]
  LEL: 10 mg/kg/day
  NEL: < 10 mg/kg/day

## NC(N)=O [Urea]
[20]
  LEL: 225 mg/kg/day
  LOAEL: > 225 mg/kg/day
  NEL: < 225 mg/kg/day
  NOAEL: ≥ 225 mg/kg/day
[21]
  LEL: 675 mg/kg/day
  LOAEL: > 675 mg/kg/day
  NEL: < 675 mg/kg/day
  NOAEL: ≥ 675 mg/kg/day
